Test results published in patent publication US6914045B2, “Glycopeptide antibiotics” (Wyeth Holdings Corporation, priority 2001, dated 2005).

Legend:
Assay in all cases: in vitro antibacterial evaluation, MIC by broth dilution
Format in all cases: cell-based
[1] = test system: Escherichia coli; settings: 18 hours at 35° C.
[2] = test system: Enterococcus sp.; settings: broth dilution, 18 hours at 35° C.
Procedure, shortened: (§1)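 Test organisms, which included recent clinical isolates resistant to methicillin, penicillin and/or vancomycin, were inoculated at 5×10^5 CFU/mL into Muller-Hinton II […] containing antibiotic at 64-0.06 μg/mL. Minimum inhibitory concentrations were then read as the lowest level inhibiting growth.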

[3] = test system: Staphylococcus sp.; settings: broth dilution, 18 hours at 35° C.
Procedure, shortened: as §1

[4] = test system: Streptococcus sp.; settings: broth dilution, 18 hours at 35° C.
Procedure, shortened: as §1

CC(c1ccccc1)C1NC(=O)CNC(=O)C(CO)NC(=O)C(C(O)C2CNC(=N)N2C2OC(CO)C(O)C3OC(C)(C)OC32)NC(=O)C(C(O)C2CNC(=N)N2)NC(=O)C(Cc2ccc(OC3OC(CO)C(OC4OC(CO)C(O)C5OC(C)(C)OC45)C4OC(C)(C)OC34)cc2)NC1=O (stereo not shown) [Example 229a]
128 µg/mL: MIC Enterococcus avium (GC 4558) [2] | MIC Enterococcus avium (GC 4558) ([2]; inoculum 5×10^5 CFU/mL, strain GC 4558)
>128 µg/mL: MIC Escherichia coli (ATCC 25922) [1] | MIC Escherichia coli (GC 4559) [1] | MIC Escherichia coli (GC 4560) [1] | MIC Enterococcus faecalis (ATCC 29212) [2] | MIC Enterococcus faecalis (GC 2242) [2] | MIC Enterococcus faecalis (GC 2691) [2] | MIC Enterococcus faecalis (GC 3059) [2] | MIC Enterococcus faecalis (GC 4552) [2] | MIC Enterococcus faecalis (GC 4553) [2] | MIC Enterococcus faecalis (GC 4554) [2] | MIC Enterococcus faecalis (GC 6189) [2] | MIC Enterococcus faecium (GC 2243) [2] | MIC Enterococcus faecium (GC 4556) [2] | MIC Enterococcus faecium (GC 4557) [2] | MIC Enterococcus faecalis (ATCC 29212) ([2]; inoculum 5×10^5 CFU/mL, strain ATCC 29212) | MIC Enterococcus faecalis (GC 2242) ([2]; inoculum 5×10^5 CFU/mL, strain GC 2242) | MIC Enterococcus faecium (GC 2243) ([2]; inoculum 5×10^5 CFU/mL, strain GC 2243) | MIC Enterococcus faecalis (GC 2691) ([2]; inoculum 5×10^5 CFU/mL, strain GC 2691) | MIC Enterococcus faecalis (GC 3059) ([2]; inoculum 5×10^5 CFU/mL, strain GC 3059) | MIC Enterococcus faecalis (GC 4552) ([2]; inoculum 5×10^5 CFU/mL, strain GC 4552) | MIC Enterococcus faecalis (GC 4553) ([2]; inoculum 5×10^5 CFU/mL, strain GC 4553) | MIC Enterococcus faecalis (GC 4554) ([2]; inoculum 5×10^5 CFU/mL, strain GC 4554) | MIC Enterococcus faecium (GC 4556) ([2]; inoculum 5×10^5 CFU/mL, strain GC 4556) | MIC Enterococcus faecium (GC 4557) ([2]; inoculum 5×10^5 CFU/mL, strain GC 4557) | MIC Enterococcus faecalis (GC 6189) ([2]; inoculum 5×10^5 CFU/mL, strain GC 6189) | MIC Coagulase Negative Staphylococcus (GC 4547) [3] | MIC Coagulase Negative Staphylococcus (GC 4548) [3] | MIC Coagulase Negative Staphylococcus (GC 4549) [3] | MIC Coagulase Negative Staphylococcus (GC 4551) [3] | MIC Coagulase Negative Staphylococcus (GC 6257) [3] | MIC Staphylococcus aureus (ATCC 29213) [3] | MIC Staphylococcus aureus (GC 1131) [3] | MIC Staphylococcus aureus (GC 3051) [3] | MIC Staphylococcus aureus (GC 3053) [3] | MIC Staphylococcus aureus (GC 4541) [3] | MIC Staphylococcus aureus (GC 4542) [3] | MIC Staphylococcus aureus (GC 4544) [3] | MIC Staphylococcus aureus (GC 4545) [3] | MIC Staphylococcus aureus-SMITH (GC 4543) [3] | MIC Staphylococcus haemolyticus (GC 4546) [3] | MIC Staphylococcus aureus (ATCC 29213) ([3]; strain ATCC 29213) | MIC Staphylococcus aureus (GC 1131) ([3]; strain GC 1131) | MIC Staphylococcus aureus (GC 3051) ([3]; strain GC 3051) | MIC Staphylococcus aureus (GC 3053) ([3]; strain GC 3053) | MIC Staphylococcus aureus (GC 4541) ([3]; strain GC 4541) | MIC Staphylococcus aureus (GC 4542) ([3]; strain GC 4542) | MIC Staphylococcus aureus-SMITH (GC 4543) ([3]; strain GC 4543) | MIC Staphylococcus aureus (GC 4544) ([3]; strain GC 4544) | MIC Staphylococcus aureus (GC 4545) ([3]; strain GC 4545) | MIC Staphylococcus haemolyticus (GC 4546) ([3]; strain GC 4546) | MIC Coagulase Negative Staphylococcus (GC 4547) ([3]; strain GC 4547) | MIC Coagulase Negative Staphylococcus (GC 4548) ([3]; strain GC 4548) | MIC Coagulase Negative Staphylococcus (GC 4549) ([3]; strain GC 4549) | MIC Coagulase Negative Staphylococcus (GC 4551) ([3]; strain GC 4551) | MIC Coagulase Negative Staphylococcus (GC 6257) ([3]; strain GC 6257) | MIC Streptococcus agalactiae (GC 4564) [4] | MIC Streptococcus pneumoniae (ATCC 6301) [4] | MIC Streptococcus pneumoniae (GC 1894) [4] | MIC Streptococcus pneumoniae (GC 4565) [4] | MIC Streptococcus pyogenes (GC 4563) [4] | MIC Streptococcus pneumoniae (ATCC 6301) ([4]; inoculum 5×10^5 CFU/mL, strain ATCC 6301) | MIC Streptococcus pneumoniae (GC 1894) ([4]; inoculum 5×10^5 CFU/mL, strain GC 1894) | MIC Streptococcus pyogenes (GC 4563) ([4]; inoculum 5×10^5 CFU/mL, strain GC 4563) | MIC Streptococcus agalactiae (GC 4564) ([4]; inoculum 5×10^5 CFU/mL, strain GC 4564) | MIC Streptococcus pneumoniae (GC 4565) ([4]; inoculum 5×10^5 CFU/mL, strain GC 4565)
